Test results taken from ChEMBL document CHEMBL1139561, “Biaryl isoxazolinone antibacterial agents” (Bioorg Med Chem Lett, 2005).
Values after ≈ are worked out from the molar mass of the structure shown. Values belong to the compound of their own block, whether it stands above or below them.

How the values were obtained:
[1] = test system: Staphylococcus aureus; assay: Minimum inhibition concentration against Staphylococcus aureus strains in presence of 4% calf serum; format: functional
[2] = test system: Haemophilus influenzae; assay: Minimum inhibition concentration against Haemophilus influenzae strains; format: functional
[3] = test system: Staphylococcus aureus; assay: Minimum inhibition concentration against Staphylococcus aureus strains in presence of 1% calf serum; format: functional
[4] = test system: Staphylococcus aureus; assay: Minimum inhibition concentration against Staphylococcus aureus strains in presence of 32% calf serum; format: functional
[5] = test system: Staphylococcus aureus; assay: Minimum inhibition concentration against Staphylococcus aureus strains in presence of 8% calf serum; format: functional
[6] = Half life for compound in mouse was determined; format: ADME; conditions: in vivo
[7] = Half life for compound in rat was determined; format: ADME; conditions: in vivo
[8] = Area under curve concentration in mouse was determined; format: ADME; conditions: in vivo
[9] = Maximum serum concentration in mouse was determined; format: ADME, organism-based
[10] = test system: Staphylococcus aureus; assay: Minimum inhibition concentration against Staphylococcus aureus strains in presence of 0.5% calf serum; format: functional
[11] = Maximum serum concentration in rat was determined; format: ADME, organism-based
[12] = Protective dose against Staphylococcus aureus in mice after 8 days of oral b.i.d. administration at 1 and 5 hr per interval (n=10); format: functional; conditions: read-out: PD50
[13] = test system: Staphylococcus aureus; assay: Minimum inhibition concentration against Staphylococcus aureus strains in presence of 16% calf serum; format: functional
[14] = test system: Staphylococcus aureus; assay: Minimum inhibition concentration against Staphylococcus aureus strains in presence of 2% calf serum; format: functional
[15] = test system: Staphylococcus aureus; assay: Minimum inhibition concentration against Staphylococcus aureus strains in presence of 0.25% calf serum; format: functional
[16] = test system: Staphylococcus aureus; assay: Minimum inhibition concentration against Staphylococcus aureus strains in presence of >64% calf serum; format: functional

MIC [1]: 1 µg/mL
MIC [2]: 32 µg/mL (≈ 96.8 µM)
SMILES: CC(=O)NCn1cc(-c2ccc(C3=CCSCC3)cc2)c(=O)o1

MIC [3]: 0.5 µg/mL
MIC [2]: 64 µg/mL (≈ 187 µM)
SMILES: CC(=O)NCn1cc(-c2ccc(-c3sccc3C=O)cc2)c(=O)o1

MIC [4]: 1 µg/mL
MIC ([4]; Staphylococcus aureus): 1 µg/mL
MIC [2]: > 32 µg/mL
SMILES: CC(=O)NCn1cc(-c2ccc(-c3cccc4ccccc34)cc2)c(=O)o1

MIC [3]: 0.25 µg/mL
MIC [2]: 4 µg/mL (≈ 12.7 µM)
SMILES: CC(=O)NCn1cc(-c2ccc(C3=CCOCC3)cc2)c(=O)o1

MIC [13]: 8 µg/mL
MIC [2]: 32 µg/mL (≈ 77 µM)
SMILES: CC(=O)NCn1cc(-c2ccc(C3CCN(C(=O)OC(C)(C)C)CC3)cc2)c(=O)o1

MIC [13]: 32 µg/mL
MIC [2]: 32 µg/mL (≈ 101 µM)
SMILES: CC(=O)NCn1cc(-c2ccc(C3CCNCC3)cc2)c(=O)o1

MIC [2]: 4 µg/mL (≈ 11.5 µM)
MIC [5]: 0.06 µg/mL
SMILES: CC(=O)NCn1cc(-c2ccc(-c3ccc(Cl)s3)cc2)c(=O)o1

MIC ([4]; Staphylococcus aureus): 1 µg/mL
MIC [2]: 16 µg/mL (≈ 53.6 µM)
SMILES: CC(=O)NCn1cc(-c2ccc(-c3ccco3)cc2)c(=O)o1

MIC [14]: 1 µg/mL
MIC [2]: 8 µg/mL (≈ 24.7 µM)
SMILES: CC(=O)NCn1cc(-c2ccc(-c3ccc(O)cc3)cc2)c(=O)o1

MIC [2]: 64 µg/mL (≈ 173 µM)
MIC [16]: 32 µg/mL
SMILES: CC(=O)NCn1cc(-c2ccc(-c3ccc(F)c(C(=O)O)c3)cc2)c(=O)o1

MIC [1]: 0.25 µg/mL
MIC [2]: > 64 µg/mL
SMILES: CC(=O)NCn1cc(-c2ccc(-c3cc(C)cs3)cc2)c(=O)o1

MIC [14]: 1 µg/mL
MIC [2]: 8 µg/mL (≈ 25.9 µM)
SMILES: CC(=O)NCn1cc(-c2ccc(-c3ccccn3)cc2)c(=O)o1

MIC [2]: > 32 µg/mL
MIC [5]: 2 µg/mL
SMILES: COc1ccc(-c2ccc(-c3cn(CNC(C)=O)oc3=O)cc2)c(OC)c1

MIC [2]: > 64 µg/mL
MIC [5]: 2 µg/mL
SMILES: CC(=O)NCn1cc(-c2ccc(-c3c(C)noc3C)cc2)c(=O)o1

MIC [2]: 64 µg/mL (≈ 181 µM)
MIC [16]: 32 µg/mL
SMILES: CC(=O)NCn1cc(-c2ccc(-c3cncc(C(=O)O)c3)cc2)c(=O)o1

Continued, compound first:

SMILES: CC(=O)NCn1cc(-c2ccc(C3=CCNCC3)cc2)c(=O)o1
MIC [2]: 16 µg/mL (≈ 51.1 µM)
MIC [5]: 8 µg/mL

SMILES: CC(=O)NCn1cc(-c2ccc(C3=CCN(C(=O)CO)CC3)cc2)c(=O)o1
half-life [6]: 23.5 min
half-life [7]: 36 min
AUC [8]: 16.9 µg/h/mL
Cmax [9]: 22900 ng/mL
MIC [10]: 0.25 µg/mL
MIC [2]: 2 µg/mL (≈ 5.39 µM)
Cmax [11]: 1900 ng/mL
ED50 [12]: 4 mg/kg/day

SMILES: CC(=O)NCn1cc(-c2ccc(C3=CCN(C(=O)OC(C)(C)C)CC3)cc2)c(=O)o1
MIC ([4]; Staphylococcus aureus): 8 µg/mL
MIC [2]: > 64 µg/mL

SMILES: CC(=O)NCn1cc(-c2ccc(C3CCN(C(=O)CO)CC3)cc2)c(=O)o1
MIC [14]: 1 µg/mL
MIC [2]: 16 µg/mL (≈ 42.8 µM)
ED50 [12]: > 3.5 mg/kg/day

SMILES: CC(=O)NCn1cc(-c2ccc(C3=CC[S+]([O-])CC3)cc2)c(=O)o1 (stereo unspecified)
half-life [6]: 22.2 min
AUC [8]: 5.5 µg/h/mL
Cmax [9]: 8300 ng/mL
MIC [3]: 0.5 µg/mL
MIC [2]: 2 µg/mL (≈ 5.77 µM)
ED50 [12]: 5.6 mg/kg/day

SMILES: CC(=O)NCn1cc(-c2ccc(C3=CCN(C(=N)N)CC3)cc2)c(=O)o1
MIC [13]: 8 µg/mL
MIC [2]: 32 µg/mL (≈ 90 µM)

SMILES: CC(=O)NCn1cc(-c2ccc(C3=CCS(=O)(=O)CC3)cc2)c(=O)o1
half-life [6]: 12.2 min
AUC [8]: 19.4 µg/h/mL
Cmax [9]: 17700 ng/mL
MIC [3]: 0.5 µg/mL
MIC [2]: 4 µg/mL (≈ 11 µM)
ED50 [12]: 4 mg/kg/day

SMILES: CC(=O)NCn1cc(-c2ccc(-c3cncnc3)cc2)c(=O)o1
half-life [6]: 103 min
AUC [8]: 29.1 µg/h/mL
MIC [15]: 0.25 µg/mL
Cmax [9]: 10400 ng/mL
MIC [2]: 4 µg/mL (≈ 12.9 µM)
ED50 [12]: > 14.1 mg/kg/day

SMILES: CC(=O)NCn1cc(-c2ccc(-c3ccc(F)cc3F)cc2)c(=O)o1
MIC [1]: 0.125 µg/mL
MIC [2]: 4 µg/mL (≈ 11.6 µM)

SMILES: CC(=O)NCn1cc(-c2ccc(-c3ccncc3)cc2)c(=O)o1
half-life [6]: 203 min
AUC [8]: 56 µg/h/mL
Cmax [9]: 17700 ng/mL
MIC [10]: 0.06 µg/mL
MIC [2]: 2 µg/mL (≈ 6.47 µM)
ED50 [12]: 8.9 mg/kg/day

SMILES: COc1cccc(-c2ccc(-c3cn(CNC(C)=O)oc3=O)cc2)c1
MIC [3]: 0.06 µg/mL
MIC [2]: > 64 µg/mL

SMILES: CC(=O)NCn1cc(-c2ccc(-c3ccc(OC(F)(F)F)cc3)cc2)c(=O)o1
MIC [13]: 0.5 µg/mL
MIC [2]: > 32 µg/mL

SMILES: CC(=O)NCn1cc(-c2ccc(-c3cncs3)cc2)c(=O)o1
MIC [1]: 0.5 µg/mL
MIC [2]: 4 µg/mL (≈ 12.7 µM)

SMILES: CC(=O)NCn1cc(-c2ccc(-c3cccnc3)cc2)c(=O)o1
half-life [6]: 86.7 min
AUC [8]: 41.1 µg/h/mL
MIC [1]: 0.5 µg/mL
Cmax [9]: 15300 ng/mL
MIC [2]: 2 µg/mL (≈ 6.47 µM)
ED50 [12]: 10 mg/kg/day
